Data published in patent US9573970B2, “4-{4-[(1E)-4-(2,9-diazaspiro[5.5]undec-2-yl)but-1-en-1-yl]-2-methylbenzyl}-5-(propan-2-yl)-1H-pyrazol-3-yl beta-D glucopyranoside acetate” (Eli Lilly and Company, priority 2013, dated 2017).

Target: T1, mouse SGLT1 (Mus musculus, UniProt Q8C3K6)
T1 sequence (Q8C3K6 1-665): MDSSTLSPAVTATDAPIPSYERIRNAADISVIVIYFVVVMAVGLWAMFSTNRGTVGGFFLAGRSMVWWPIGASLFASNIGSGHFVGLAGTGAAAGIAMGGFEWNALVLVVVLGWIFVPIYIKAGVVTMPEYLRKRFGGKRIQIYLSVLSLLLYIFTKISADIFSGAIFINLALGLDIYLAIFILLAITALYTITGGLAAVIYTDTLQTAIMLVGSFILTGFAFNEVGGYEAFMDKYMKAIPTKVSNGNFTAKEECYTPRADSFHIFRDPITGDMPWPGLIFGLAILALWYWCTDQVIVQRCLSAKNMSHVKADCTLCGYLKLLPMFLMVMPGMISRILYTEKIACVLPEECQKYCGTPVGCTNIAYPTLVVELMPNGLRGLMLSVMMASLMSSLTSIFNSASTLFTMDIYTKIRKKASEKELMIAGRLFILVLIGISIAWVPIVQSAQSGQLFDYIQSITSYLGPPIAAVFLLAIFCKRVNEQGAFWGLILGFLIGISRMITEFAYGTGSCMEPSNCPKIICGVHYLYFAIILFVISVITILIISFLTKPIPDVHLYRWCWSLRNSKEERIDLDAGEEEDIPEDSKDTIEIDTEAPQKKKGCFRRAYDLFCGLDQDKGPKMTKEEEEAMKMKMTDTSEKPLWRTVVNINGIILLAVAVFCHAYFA
Test: Sodium-dependent 14C-AMG uptake in CHO-K1 cells expressing mouse SGLT1
Assay type: cell-based
Conditions: n = 9
Description: The cDNA encoding human SGLT1 (slc5a1, NM_000343), human SGLT2 (slc5a2, NM_003041) and mouse SGLT1 (slc5a1, NM_019810.4) are purchased from Openbiosystems, Invitrogen and Openbiosystems, respectively. The cDNA is cloned into pcDNA3.1+ for mammalian expression and is stably transfected into Chinese hamster ovary (CHO)-K1 cells using standard mammalian transfection procedures. An SGLT-expressing sub-clone of each over-expressing cell line is selected based on resistance to neomycin (Geneticin, Invitrogen) and activity in the ^14C-α-methyl-D-glucopyranoside (^14C-AMG) uptake assay (see below). Stable SGLT-expressing cells are maintained using standard cell culture techniques.
The SGLT activity is measured as sodium-dependent ^14C-AMG uptake in the above cell lines described as follows. One hundred μL of culture medium containing 30,000 cells are seeded to each well of a 96-well BioCoat poly-D-lysine plate (Becton Dickson) and cultured at 37° C. overnight. The culture medium is aspirated and cells are washed twice with 200 μL of Reaction Buffer (140 mM NaCl, 2 mM KCl, 1 mM CaCl2, MgCl2, and 14 mM N-2-hydroethylpiperrazine-N′-2-ethanesulfonic acid (Hepes), pH 7.5). The excess buffer is tapped out onto paper towels. Thirty-five μL of Reaction Buffer are added to each well. […] After mixing, the scintillation signal in the plate is counted in a MicroBeta (PerkinElmer). […]

With `Cc1cc(/C=C/CCN2CCCC3(CCNCC3)C2)ccc1Cc1c(O[C@@H]2O[C@H](CO)[C@@H](O)[C@H](O)[C@H]2O)n[nH]c1C(C)C` [Example 1 (free base), 4-{4-[(1E)-4-(2,9-diazaspiro[5.5]undec-2-yl)but-1-en-1-yl]-2-methylbenzyl}-5-(propan-2-yl)-1H-pyrazol-3-yl beta-D-glucopyranoside] the IC50 was 10 ± 2 nM.
